# Measured values as given in the supplement of paper PMC10307832.
# Legend:
# Experiment in all cases: relative viability (nuclei count vs DMSO), 5 days (fraction); higher = more cells survive
# [1] = compound: COc1cc2nc(N3CCCN(C)CC3)nc(NC3CCN(Cc4ccccc4)CC3)c2cc1OC + COc1cccc2cc(-c3nc([C@H]4CC[C@H](C(=O)O)CC4)n4ncnc(N)c34)[nH]c12 [OSI-027] (partner 0.5 µM)
# Outline: (§1)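 Medians of duplicate plates are given as relative viability. That measure is the nuclei count in treated wells divided by the count in vehicle wells. Counts were taken on 4× images of lung cancer cell lines in 1536-well plates, 5 days after pin-tool dosing the day after seeding with one drug alone or a fixed anchor-drug dose plus five library-drug doses (not always all listed) in √10 steps.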
# [2] = compound: COc1cc2nc(N3CCCN(C)CC3)nc(NC3CCN(Cc4ccccc4)CC3)c2cc1OC + N=C(N)NC(=N)NCCc1ccccc1 [Phenformin] (partner 250 µM)
# Outline: as §1
# [3] = compound: COc1cc2nc(N3CCCN(C)CC3)nc(NC3CCN(Cc4ccccc4)CC3)c2cc1OC + C[C@]1(O)C[C@@H](c2nc(-c3ccc4ccc(-c5ccccc5)nc4c3)c3c(N)nccn32)C1 [Linsitinib] (partner 1 µM)
# Outline: as §1
# AZD6482 + Luminespib = compound: Cc1cc([C@@H](C)Nc2ccccc2C(=O)O)c2nc(N3CCOCC3)cc(=O)n2c1 [AZD6482] + CCNC(=O)c1noc(-c2cc(C(C)C)c(O)cc2O)c1-c1ccc(CN2CCOCC2)cc1 [Luminespib] (partner 0.01 µM)
# Outline: as §1
Cell Line,relative viability ([1]; first compound 0.2 µM),relative viability ([1]; first compound 0.6325 µM),relative viability ([1]; first compound 2 µM),relative viability ([1]; first compound 6.325 µM),relative viability ([2]; first compound 0.2 µM),relative viability ([2]; first compound 0.6325 µM),relative viability ([2]; first compound 2 µM),relative viability ([2]; first compound 6.325 µM),relative viability ([3]; first compound 0.2 µM),relative viability ([3]; first compound 0.6325 µM),relative viability ([3]; first compound 2 µM),relative viability ([3]; first compound 6.325 µM),relative viability (AZD6482 + Luminespib; first compound 0.08 µM),relative viability (AZD6482 + Luminespib; first compound 0.253 µM),relative viability (AZD6482 + Luminespib; first compound 0.8 µM),relative viability (AZD6482 + Luminespib; first compound 2.53 µM),relative viability (AZD6482 + Luminespib; first compound 8 µM)
ABC-1,0.479,0.583,0.444,0.336,0.223,0.2,0.26,0.319,0.815,0.66,0.871,0.936,0.668,0.521,0.438,0.55,0.461
NCI-H522,0.654,0.755,0.74,0.499,0.649,0.68,0.613,0.745,–,–,–,–,1.22,1.07,0.879,0.946,0.88
NCI-H838,0.433,0.429,0.362,0.375,0.769,0.776,0.576,0.502,1.07,0.936,1.11,0.85,0.246,0.355,0.265,0.193,0.332
SW 900,0.445,0.539,0.546,0.409,0.522,0.682,0.645,0.47,–,–,–,–,0.152,0.137,0.153,–,0.153
A549,–,–,–,–,0.185,0.165,0.195,0.146,0.648,0.549,0.713,0.684,–,–,–,–,–
A-427,0.487,0.55,0.442,0.386,0.337,0.422,0.305,0.247,1.13,1.06,1.13,1.18,0.974,0.79,0.986,–,0.677
NCI-H1792,0.836,0.816,0.682,0.784,–,0.257,0.467,0.268,0.61,0.512,0.496,0.598,0.373,0.392,0.458,0.19,0.353
LCLC-97TM1,0.569,0.621,0.674,0.537,0.432,0.401,0.503,0.465,0.176,–,0.159,0.195,0.77,0.803,0.66,0.327,0.282
NCI-H1703,–,–,–,–,–,–,–,–,0.593,0.398,0.533,0.69,–,–,–,–,–
LCLC-103H,0.454,0.564,0.537,0.449,0.36,0.344,0.367,0.36,1.1,1.13,1.28,1.04,0.741,0.751,0.804,0.602,0.64
PC-3 [JPC-3],0.767,0.746,0.764,0.764,0.484,0.499,0.488,0.521,1,0.931,1.01,0.903,0.634,0.689,0.655,0.509,0.588
BEN,0.317,0.28,0.288,0.244,0.252,0.251,0.229,0.276,0.914,0.949,1.04,1.01,0.399,0.193,0.522,0.177,0.334
